Results from US12246009B2, “Compositions and methods for treating neurodegenerative, myodegenerative, and lysosomal storage disorders” (GEORGETOWN UNIVERSITY, priority 2018, dated 2025).
“Also recorded” adds a separate entry of the source.

How the values were obtained:
B35 cells = experiment: Lactate dehydrogenase (LDH) assay, cytotoxicity / cell viability; assay type: cell-based; details: for LDH measured in the media (cell death / toxicity): 24 hour transfection with pTau or α-synuclein
Protocol: Rat neuroblastoma B35 cells were grown in Dulbecco's Modified Eagle's Medium (DMEM) with 10% Fetal Bovine Serum (FBS) and 1% penicillin/streptomycin and incubated at 37° C. with 5% CO2. For the experiments, cells were transferred to 12-well plates (Cat. #150628, ThermoFisher, Waltham, MA) and grown to at least 70% confluence. Transient transfection was performed with 3 μg P301 L tau (Cat. #30145, Addgene) cDNA or 3 μg human α-synuclein cDNA using Fugene HD transfection reagent (Cat. #E2311, Promega, Madison WI) for 24 hours. […] Cell culture media was collected and cells were harvested using sodium-tris, EDTA, NP-40 (STEN) buffer and centrifuged at 10,000×g for 20 minutes at 4′C and supernatant was collected. Cell viability was determined via lactate dehydrogenase assay (Cat. #88954, Thermofisher) and MTT assay (Cat. #V13154, Thermofisher). Protein was extracted by removing culture medium and adding 0.2 ml 1× STEN buffer (50 mM. Tris (pH 7.6), 150 mM NaCl, 2 mM EDTA, 0.2% NP-40, 0.2% BSA, 20 mM. PMSF and protease cocktail inhibitor) to cell layer and incubated on ice for 10 minutes. The bottom of the well was scraped and allowed to incubate on ice for an additional 10 minutes. Cell lysates were collected, stored at −80° C., and used for additional analyses.
Cellular cytotoxicity was quantitatively measured by assessment of LDH; a cytosolic enzyme that is released from damaged cells into the cellular media, after exposure to the drug 5 hours after initial dosage. The cell culture media was collected, and an aliquot was coupled with a lactate and NAD+. LDH catalyzes the reaction that converts lactate into pyruvate to produce NADH. NADH, in turn, reduces a tetrazolium salt (INT) into a red formazan product. The amount of LDH in the media is proportional to the amount of formazan, which was measured at 490 nm. The absorbance at 680 nm, to measure the background signal from the instrument, was subtracted from the absorbance at 490 nm to calculate the LDH activity.

pTau (181) [1] = experiment: pTau (181) ELISA in pTau transfected B35 cells; assay type: cell-based, rat; details: 24 hour transfection
α-synuclein = α-synuclein ELISA in α-synuclein-transfected B35 cells; assay type: cell-based, rat; details: transfected B35 cell culture model, doses 10 uM-1 mM
Protocol: Rat neuroblastoma B35 cells were grown in Dulbecco's Modified Eagle's Medium (DMEM) with 10% Fetal Bovine Serum (FBS) and 1% penicillin/streptomycin and incubated at 37° C. with 5% CO2. For the experiments, cells were transferred to 12-well plates (Cat. #150628, ThermoFisher, Waltham, MA) and grown to at least 70% confluence. Transient transfection was performed with 3 μg P301 L tau (Cat. #30145, Addgene) cDNA or 3 μg human α-synuclein cDNA using Fugene HD transfection reagent (Cat. #E2311, Promega, Madison WI) for 24 hours. Cells were treated with 1 mM, 100 μM, 10 μM, 1 μM, 0.1 μM, 0.01 μM, and 0.001 μM dissolved in DMSO or an equivalent 5 ul of DMSO for 5 hours. Cell culture media was collected and cells were harvested using sodium-tris, EDTA, NP-40 (STEN) buffer and centrifuged at 10,000×g for 20 minutes at 4′C and supernatant was collected. Cell viability was determined via lactate dehydrogenase assay (Cat. #88954, Thermofisher) and MTT assay (Cat. #V13154, Thermofisher). Protein was extracted by removing culture medium and adding 0.2 ml 1× STEN buffer (50 mM. Tris (pH 7.6), 150 mM NaCl, 2 mM EDTA, 0.2% NP-40, 0.2% BSA, 20 mM. PMSF and protease cocktail inhibitor) to cell layer and incubated on ice for 10 minutes. The bottom of the well was scraped and allowed to incubate on ice for an additional 10 minutes. Cell lysates were collected, stored at −80° C., and used for additional analyses.
To perform transient transfection of α-synuclein into the rat neuroblastoma B35 cells FuGene® HD Transfection Reagent (Promega Corporation, Madison, WI) was used. Cells were grown in 12-well dishes. […]
Human α-synuclein and p-tau ELISA were performed using 50 μl (1 μg/4 μl) of cell lysates detected with 50 μl primary antibody (3 h) and 100 μl anti-rabbit secondary antibody (30 min) at RT. α-Synuclein levels were measured using human specific ELISA (Invitrogen Inc., Carlsbad, CA) according to manufacturer's protocols. Tau was measured using specific tau at serine 396 according to manufacturer's protocol. […]

pTau (181) [2] = experiment: pTau (181) ELISA/Xmap in Tau expressing transgenic (rTG4510) mice; assay type: in vivo, mouse
Src = target: T1, Src (Mus musculus, UniProt P05480); experiment: Activated Src immunoblot in rTG4510 mice; assay type: in vivo; details: rTG4510 mice, 1.25, 2.5 or 5 mg/kg i.p., 7 days
T1 construct: Brains from treated mice compared with DMSO treated mice were homogenized in STEN lysis buffer; from tissue; host or cells: brain of rTg4510 mice
T1 sequence (P05480 whole entry): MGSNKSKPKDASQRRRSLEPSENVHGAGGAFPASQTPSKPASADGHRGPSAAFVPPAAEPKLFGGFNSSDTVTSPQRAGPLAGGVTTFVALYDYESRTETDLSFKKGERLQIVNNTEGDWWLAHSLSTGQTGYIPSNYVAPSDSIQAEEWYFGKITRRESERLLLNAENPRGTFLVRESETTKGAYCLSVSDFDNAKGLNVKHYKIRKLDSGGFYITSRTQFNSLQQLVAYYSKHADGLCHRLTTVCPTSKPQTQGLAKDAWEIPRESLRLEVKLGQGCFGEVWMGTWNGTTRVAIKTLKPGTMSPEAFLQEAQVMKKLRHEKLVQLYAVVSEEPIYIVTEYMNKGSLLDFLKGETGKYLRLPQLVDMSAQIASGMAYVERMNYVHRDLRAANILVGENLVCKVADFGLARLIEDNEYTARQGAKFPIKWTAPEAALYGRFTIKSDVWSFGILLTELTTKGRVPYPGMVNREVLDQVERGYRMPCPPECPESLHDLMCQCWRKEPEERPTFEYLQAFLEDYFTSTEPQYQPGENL

pTau (191) = experiment: pTau in CamP301L mice; assay type: in vivo, mouse; details: 2.5 mg/kg or 5 mg/kg
dopamine = experiment: Dopamine and homovanillic acid (HVA) levels in A53T mice; assay type: in vivo, mouse; details: 2.5 mg/kg i.p., 21 days
amyloid-beta (6E10) = experiment: Amyloid-beta (6E10) immunoblot in transgenic APP mice; assay type: in vivo, mouse; details: 1.25 and 2.5 mg/kg i.p., 21 consecutive days
Ab1 = target: T2, Ab1 (Mus musculus, UniProt P00520); experiment: Activated (phosphorylated) Ab1 (245) immunoblot in transgenic APP mice; assay type: in vivo; details: i.p., 21 days
T2 construct: Brains from treated mice compared with DMSO treated mice were homogenized in STEN lysis buffer; from tissue; host or cells: brain of rTg4510 or TgAPP mice
T2 sequence (P00520 whole entry): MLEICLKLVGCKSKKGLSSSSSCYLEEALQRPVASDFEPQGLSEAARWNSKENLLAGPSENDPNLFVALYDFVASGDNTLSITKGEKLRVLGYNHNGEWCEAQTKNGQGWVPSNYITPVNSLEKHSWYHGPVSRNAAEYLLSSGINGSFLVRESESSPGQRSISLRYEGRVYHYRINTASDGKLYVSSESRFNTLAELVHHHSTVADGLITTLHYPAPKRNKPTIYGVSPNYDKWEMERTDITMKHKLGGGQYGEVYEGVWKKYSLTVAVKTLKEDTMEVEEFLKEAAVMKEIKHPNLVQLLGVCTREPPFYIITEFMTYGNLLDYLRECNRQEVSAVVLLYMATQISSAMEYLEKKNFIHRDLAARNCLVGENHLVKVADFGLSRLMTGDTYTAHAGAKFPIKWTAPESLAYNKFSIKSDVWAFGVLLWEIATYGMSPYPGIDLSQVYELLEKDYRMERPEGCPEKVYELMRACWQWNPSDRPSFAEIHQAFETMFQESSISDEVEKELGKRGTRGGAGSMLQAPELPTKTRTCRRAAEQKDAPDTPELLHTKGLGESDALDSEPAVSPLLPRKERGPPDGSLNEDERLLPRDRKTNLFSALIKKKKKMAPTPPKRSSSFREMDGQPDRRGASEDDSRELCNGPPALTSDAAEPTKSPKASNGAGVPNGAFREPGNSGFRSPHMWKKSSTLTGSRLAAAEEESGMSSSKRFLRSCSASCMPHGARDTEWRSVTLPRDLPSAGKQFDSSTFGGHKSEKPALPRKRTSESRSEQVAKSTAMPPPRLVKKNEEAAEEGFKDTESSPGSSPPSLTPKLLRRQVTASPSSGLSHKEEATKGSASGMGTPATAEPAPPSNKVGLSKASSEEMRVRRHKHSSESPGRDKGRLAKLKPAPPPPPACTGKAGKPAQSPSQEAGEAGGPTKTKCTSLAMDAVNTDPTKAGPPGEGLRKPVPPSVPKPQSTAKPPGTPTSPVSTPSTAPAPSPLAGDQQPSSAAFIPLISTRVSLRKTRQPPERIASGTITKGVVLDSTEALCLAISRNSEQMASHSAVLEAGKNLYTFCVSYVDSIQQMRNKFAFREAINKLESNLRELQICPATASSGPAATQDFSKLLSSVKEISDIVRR

[3] = test system: human phosphorylated tau (Ser396); experiment: Human phosphorylated tau (Ser396) ELISA in transgenic APP mice; assay type: in vivo, mouse; details: 2.5 mg/kg i.p., 21 days

SMILES: Cc1cccc(-c2cc3nccc(Nc4ccccc4)c3s2)c1 [BK40143, N-Phenyl-2-(m-tolyl)thieno[3,2-b]pyridin-7-amine]
- lactate dehydrogenase (LDH), neuroprotective effect (B35 cells; 1 μM, 16 hours of treatment, compared to control): decrease
- LDH measured in the media (cell death / toxicity) (B35 cells; five hours of treatment): does not result in toxicity or cell death
- LDH measured in the media (cell death / toxicity) (B35 cells; five hours of treatment, listed as BK41043): without any change to LDH levels
- cell viability via LDH (B35 cells; five hours of treatment, with decreasing concentrations): stepwise increase in cell viability
- pTau (181) levels (pTau (181) [1]): reduces pTau (181) levels
- level of alpha-synuclein (α-synuclein): appear to reduce the level of alpha-synuclein
- pTau (181) level, ELISA (pTau (181) [2]; Tau expressing transgenic mice, seven days of treatment): reduces pTau (181)
- phosphorylated Tau (AT181), ELISA (pTau (181) [2]; rTG4510 mice, 2.5 mg/kg i.p., 7 consecutive days, 2.5 mg/kg): significantly reduced phosphorylated Tau
- activated Src, immunoblot (Src): did not engage
- activated Src, immunoblot (Src; listed as BK-40143): does not engage
- pTau (191) level (pTau (191)): reduced
- level of the dopamine metabolite homovanillic acid (HVA) (dopamine): increase
- increase of overall level of dopamine (dopamine; 2.5 mg/kg): 30%
- increase of overall level of dopamine (dopamine; listed as BK-40143, 2.5 mg/kg): about 30%
- aggregating extracellular amyloid-beta (6E10), immunoblot (amyloid-beta (6E10)): significantly reduced amyloid-beta plaques
- activated (phosphorylated) Ab1 (245) (Ab1): does not engage Ab1; also recorded: did not engage Ab1
- reduction of human phosphorylated tau (Ser396) [3]: over 80%
